The source of these data is ChEMBL document CHEMBL1150365, “Improved synthesis of antibacterial 3-substituted 6-anilinouracils” (Bioorg Med Chem Lett, 2008).

Data set [1] has as its system Staphylococcus aureus. Briefly: Antibacterial activity against Staphylococcus aureus 133 by broth microdilution method. The data set is classed as functional. On the technique in general: Broth dilution looks for growth in wells or tubes with falling amounts of substance.
Data set [2] is described as follows: Inhibition of Staphylococcus aureus DNA polymerase 3C.
Another data set deals with Streptococcus pneumoniae. Nature of the data set: Antibacterial activity against Streptococcus pneumoniae 1707/4 in presence of bovine serum by broth microdilution method. Type of data set: functional.
The next data set concerns Enterococcus faecalis. Briefly: Antibacterial activity against Enterococcus faecalis ICB 27159 in presence of bovine serum by broth microdilution method. Type of data set: functional.
The test system of data set [3] is Staphylococcus aureus. Briefly: Antibacterial activity in Staphylococcus aureus injected CFU mouse at 100 mg/kg, ip after 30 mins. Type of data set: functional, organism-based. Also noted: dose 100 mg/kg.
Data set [4] is described as follows: Aqueous solubility of the compound. The data set is classed as physicochemical. Conditions: water.

Converted amounts (≈) assume the structure as drawn. The source made the active and inactive calls. The calls are words filed in the database; no cut-off is given here. Bounds are passed on as bounds.

As a reminder, the MIC is the least concentration at which growth counts as inhibited. One may read the IC50 as the concentration that gives 50% inhibition. The low end stands for greater potency, the high end for weaker potency. On to `CCOC(=O)Cn1c(=O)cc(Nc2ccc3c(c2)CCC3)[nH]c1=O`, for which the values for the MIC against Staphylococcus aureus [1], in the data set with Streptococcus pneumoniae and in the data set with Enterococcus faecalis were 16 µg/mL (≈ 48.6 µM), 16 µg/mL and 64 µg/mL, respectively. For the same compound, the midpoint of inhibition in data set [2], the IC50, lay at 1.5 µM.

With `CN(C)C(=O)c1cc(Cn2c(=O)cc(Nc3ccc4c(c3)CCC4)[nH]c2=O)on1`, the MIC stood at 32 µg/mL (≈ 80.9 µM) with Staphylococcus aureus [1], 16 µg/mL in the data set on Streptococcus pneumoniae and 32 µg/mL in the data set on Enterococcus faecalis. In data set [2], this compound displayed an IC50 of 1.2 µM.

Turning to `COC(=O)c1ccc(Cn2c(=O)cc(Nc3ccc4c(c3)CCC4)[nH]c2=O)o1`, the MIC in the data set on Staphylococcus aureus [1] came out at 32 µg/mL (≈ 83.9 µM); in the data set with Streptococcus pneumoniae, 16 µg/mL; in the data set with Enterococcus faecalis, 32 µg/mL. In data set [2], this compound gave an IC50 of 2 µM.

In the case of `O=C(Cn1c(=O)cc(Nc2ccc3c(c2)CCC3)[nH]c1=O)c1ccc(Br)cc1`, the MIC with Staphylococcus aureus [1], with Streptococcus pneumoniae and with Enterococcus faecalis was greater than 256 µg/mL throughout. The same compound returned an IC50 in data set [2] greater than 13 µM.

By solubility is commonly meant the dissolved amount per volume that the medium holds. Higher therefore signals much dissolved substance. Take `O=c1cc(Nc2ccc3c(c2)CCC3)[nH]c(=O)n1CC1CC1`: the MIC in the data set with Staphylococcus aureus [1] worked out at 4 µg/mL (≈ 13.5 µM); in the data set with Streptococcus pneumoniae, 4 µg/mL; in the data set on Enterococcus faecalis, 16 µg/mL. In data set [2], this compound gave an IC50 of 0.3 µM. In the data set with Staphylococcus aureus [3], the outcome was inactive. Besides, in data set [4], the concentration in solution (solubility) came to 3.3 µg/mL (≈ 11.1 µM).

Take `CCc1cc(Nc2cc(=O)n(CCCO)c(=O)[nH]2)ccc1C`: the MIC was 8 µg/mL (≈ 26.4 µM) against Staphylococcus aureus [1], 8 µg/mL with Streptococcus pneumoniae and 16 µg/mL with Enterococcus faecalis. Moreover, the half-maximal inhibitory concentration (IC50) in data set [2] was found to be 0.3 µM.
